From patent US9066518B2, “Heterocyclic compounds as pesticides” (Bayer CropScience AG, priority 2009, dated 2015) come the findings set out here.

The term chromatographic logP denotes lipophilicity estimated from chromatographic retention. High values mean a more lipophilic compound, low ones a more hydrophilic compound. As a reminder, the logP is the decadic logarithm of the partition coefficient of the neutral form, usually between octanol and water. A lower logP goes with a more hydrophilic compound.

Data set [1] deals with green peach aphid (Myzus persicae). Put plainly: Myzus test (spray treatment). The format is in vivo. Conditions: foliar, 144 h, read-out: activity (effect in %, aphids killed). The protocol:
(§1) Solvents: 78 parts by weight of acetone
• 1.5 parts by weight of dimethylformamide Emulsifier 0.5 part by weight of alkylaryl polyglycol ether
To produce a suitable preparation of active compound, 1 part by weight of active compound is mixed with the stated amounts of solvents and emulsifier, and the concentrate is diluted with emulsifier-containing water to the desired concentration. Discs of leaves of Chinese cabbage (Brassica pekinensis) which are infested by all stages of the green peach aphid (Myzus persicae) are sprayed with an active compound preparation of the desired concentration.
After 6 days, the effect in % is determined. 100% means that all aphids have been killed; 0% means that none of the aphids has been killed.

Data set [2] in a line: logP determination (neutral / HCOOH). Conditions: for chromatographic logP: HCOOH (formic acid), logP (HCOOH); for logP: logP (neutral), neutral.
Data set [3] relates to caterpillars of the armyworm (Spodoptera frugiperda). Put plainly: Spodoptera frugiperda test (spray treatment). It counts as in vivo. Conditions: application rate 500 g/ha; after 7 days; maize leaf discs. The protocol: as §1
(§2) • 1.5 parts by weight of dimethylformamide Emulsifier: 0.5 part by weight of alkylaryl polyglycol ether
To produce a suitable preparation of active compound, 1 part by weight of active compound is mixed with the stated amounts of solvents and emulsifier, and the concentrate is diluted with emulsifier-containing water to the desired concentration. Discs of maize leaves (Zea mays) are sprayed with an active compound preparation of the desired concentration and, after drying, populated with caterpillars of the armyworm (Spodoptera frugiperda).
After 7 days, the effect in % is determined. 100% means that all caterpillars have been killed; 0% means that none of the caterpillars has been killed.

Data set [4] has as its system larvae of the mustard beetle (Phaedon cochleariae). As to the kind of experiment: Phaedon test (spray treatment). It counts as in vivo. Conditions: application rate 500 g/ha; after 7 days; Chinese cabbage leaf discs. From the text: Solvents: 78 parts by weight of acetone • • 1.5 parts by weight of dimethylformamide Emulsifier: 0.5 part by weight of alkylaryl polyglycol ether […] Discs of leaves of Chinese cabbage (Brassica pekinensis) are sprayed with an active compound preparation of the desired concentration and, after drying, populated with larvae of the mustard beetle (Phaedon cochleariae).

The subject of data set [5] is greenhouse red spider mite (Tetranychus urticae). Put plainly: Tetranychus test; OP-resistant (spray treatment). It counts as in vivo. Particulars: application rate 500 g/ha, after 6 days, bean leaf discs. The protocol:
as §1, §2
To produce a suitable preparation of active compound, 1 part by weight of active compound is mixed with the stated amounts of solvents and emulsifier, and the concentrate is diluted with emulsifier-containing water to the desired concentration. Discs of bean leaves (Phaseolus vulgaris) which are infested by all stages of the greenhouse red spider mite (Tetranychus urticae) are sprayed with an active compound preparation of the desired concentration.
After 6 days, the effect in % is determined. 100% means that all spider mites have been killed; 0% means that none of the spider mites has been killed.

Setting [6] is: application rate 500 g/ha, after 6 days, Chinese cabbage leaf discs.

Each structure is given as a SMILES string. Read-outs that look alike come from different tables or passages of the source.

In “physchem”, `c1cnc(-c2cccc(-c3cnn(-c4cccnc4)c3)n2)nc1` [Example 1, 2-[6-(1-Pyridin-3-yl-1H-pyrazol-4-yl)pyridin-2-yl]pyrimidine] showed a chromatographic logP of 1.36 and a logP of 1.52. For the same compound, the pest or weed control at 500 g/ha in data set [1] (in Brassica rapa) stood at 100%.

`c1cncc(-n2cc(-c3cccc(-c4ncon4)n3)cn2)c1` [Example 5, 2-[1,2,4]Oxadiazol-3-yl-6-(1-pyridin-3-yl-1H-pyrazol-4-yl)pyridine] yielded a log partition coefficient (logP) in the data set “physchem” of 1.54. Besides, in data set [1] (in Brassica rapa), the pest or weed control at 500 g/ha was found to be 100%.

With `c1cncc(-n2cc(-c3cccc(-c4nccnn4)n3)cn2)c1` [Example 7, 3-[6-(1-Pyridin-3-yl-1H-pyrazol-4-yl)pyridin-2-yl]-[1,2,4]triazine], in “physchem”, the logP came to 1.32. In data set [1] (in Brassica rapa), the pest or weed control at 500 g/ha came to 100%.

`Cn1c(C(F)(F)F)nn(-c2cccc(-c3cnn(-c4cccnc4)c3)n2)c1=O` [Example 16] gave a chromatographic logP in data set [2] (HCOOH) of 2.1. Besides, the pest or weed control at 500 g/ha in data set [1] (setting [6]) came to 90%. In addition, in data set [3], the “activity (effect in %, caterpillars killed)” value was found to be 100%. For the same compound, in data set [4], the “activity (effect in %, beetle larvae killed)” value is 100%.

Take `FC(F)(F)c1ccc(-c2cnn(-c3cccnc3)c2)nc1` [Example 22]: in data set [2] (HCOOH), the chromatographic logP is 2.38. In addition, in data set [1] (setting [6]), the pest or weed control at 500 g/ha is 100%. Moreover, in data set [4], the “activity (effect in %, beetle larvae killed)” value is 100%.

`COC(=O)CN(C)c1cccc(-c2cnn(-c3cccnc3)c2)n1` [Example 32] displayed a chromatographic logP in data set [2] (HCOOH) of 2.18. The pest or weed control at 500 g/ha in data set [1] (setting [6]) amounted to 100%. The “activity (effect in %, caterpillars killed)” value in data set [3] is reported as 100%.

Consider `c1cnc(-c2cccc(-c3cnn(-c4cncnc4)c3)n2)nc1` [Example 34], for which, in data set [5], the “activity (effect in %, spider mites killed)” value turned out to be 90%. This compound also showed a chromatographic logP in data set [2] (HCOOH) of 1.17. In data set [1] (setting [6]), the pest or weed control at 500 g/ha worked out at 100%.

Consider `N#CCNC(=O)c1ccc(-c2cnn(-c3cccnc3)c2)nc1` [Example 97], for which the chromatographic logP in data set [2] (HCOOH) came out at 0.95. This compound displayed a logP in data set [2] of 1.2. Besides, the pest or weed control at 500 g/ha in data set [1] (setting [6]) came to 90%.

For `c1cncc(-n2cc(-c3cc[nH]n3)cn2)c1` [Example 98, 1′-(Pyridin-3-yl)-1H,1′H-3,4′-bipyrazole], in data set [2] (HCOOH), the “logP (HCOOH)” value is reported as 0.78 and the chromatographic logP was found to be 0.79. The pest or weed control at 500 g/ha in data set [1] (setting [6]) was 100%.

With `CCOC(=O)c1cccc(-c2cnn(-c3cccnc3)c2)n1` [Example 99], the chromatographic logP in data set [2] (HCOOH) turned out to be 1.83. Further, the logP in data set [2] was 1.96. In data set [1] (setting [6]), the pest or weed control at 500 g/ha was 100%.

As for `CN1CCN(C(=O)c2cccc(-c3cnn(-c4cccnc4)c3)n2)CC1` [Example 100], the chromatographic logP in data set [2] (HCOOH) is 0.46. The pest or weed control at 500 g/ha in data set [1] (setting [6]) stood at 100%.

The compound `c1cncc(-n2cc(-c3ccncc3)cn2)c1` [Example 101] returned a chromatographic logP in data set [2] (HCOOH) of 0.01. This compound also had a logP in data set [2] of 1.24. In addition, the pest or weed control at 500 g/ha in data set [1] (setting [6]) is 100%.

In turn, `O=[N+]([O-])c1cnc(-n2ccc(-c3cnn(-c4cccnc4)c3)n2)nc1` [Example 102] came in with a chromatographic logP in data set [2] (HCOOH) of 1.64. The pest or weed control at 500 g/ha in data set [1] (setting [6]) amounted to 100%.

`O=C(Nc1cccc(-c2cnn(-c3cccnc3)c2)n1)C(F)(F)F` [Example 103]: the chromatographic logP in data set [2] (HCOOH) was found to be 2.21. This compound gave a log partition coefficient (logP) in data set [2] of 2.28. Besides, in data set [1] (setting [6]), the pest or weed control at 500 g/ha was 90%.

In turn, `Fc1cccc(-c2cnn(-c3cccnc3)c2)n1` [Example 105] registered a chromatographic logP in data set [2] (HCOOH) of 1.77. Further, in data set [1] (setting [6]), the pest or weed control at 500 g/ha was determined as 80%.

With `Nc1cccc(-c2cnn(-c3cncc(F)c3)c2)n1` [Example 106], the chromatographic logP in data set [2] (HCOOH) was 0.64. In data set [2], the logP is 1.59. Also, the pest or weed control at 500 g/ha in data set [1] (setting [6]) came out at 90%.

`FC(F)(F)c1cccc(-c2cnn(-c3cncnc3)c2)n1` [Example 107] had a chromatographic logP in data set [2] (HCOOH) of 2.36. Further, in data set [2], the logP turned out to be 2.38. Besides, the pest or weed control at 500 g/ha in data set [1] (setting [6]) stood at 90%.

Compound `N#Cc1cccc(-c2cnn(-c3cncc(F)c3)c2)n1` [Example 108] yielded a chromatographic logP in data set [2] (HCOOH) of 2.2. In data set [1] (setting [6]), the pest or weed control at 500 g/ha amounted to 90%.

In data set [2] (HCOOH), `O=C(NCC(F)(F)F)c1cnc(-c2cnn(-c3cccnc3)c2)cc1C(F)(F)F` [Example 109] gave a chromatographic logP of 2.11. The compound further gave a logP in data set [2] of 2.18. Besides, the pest or weed control at 500 g/ha in data set [1] (setting [6]) was 90%.

In data set [2] (HCOOH), `O=Cc1cccc(-c2cnn(-c3cccnc3)c2)n1` [Example 110] returned a chromatographic logP of 1.56. For the same compound, the pest or weed control at 500 g/ha in data set [1] (setting [6]) is 80%.

With `c1cncc(-n2cc(-c3cnn(-c4cccnc4)c3)cn2)c1` [Example 112], the chromatographic logP in data set [2] (HCOOH) is 1.37. In addition, the pest or weed control at 500 g/ha in data set [1] (setting [6]) was 80%.
